According to ChEMBL document CHEMBL1149006, “Isolation and characterization of a new triterpene from Iris missouriensis” (1986):
Converted amounts (≈) assume the structure as drawn.

System: P388
Assay: Cytotoxicity against mouse P388 cells
Type: functional
Settings: read-out: ED50 (the source's name)

Structure (SMILES) | EC50 [µg/mL]
CC[C@H](/C=C/[C@@H](C)[C@H]1CC[C@H]2[C@@H]3[C@@H](O)C=C4C[C@@H](O)CC[C@]4(C)[C@H]3CC[C@]12C)C(C)C | 0.1 (≈ 0.233 µM)
CC[C@H](CC[C@@H](C)[C@H]1CC[C@H]2[C@@H]3[C@@H](O)C=C4C[C@@H](O)CC[C@]4(C)[C@H]3CC[C@]12C)C(C)C | 0.2 (≈ 0.464 µM)
